Measurements published in patent publication US6608057B2, “Compounds useful as reversible inhibitors of cathepsin S” (Boehringer Ingelheim Pharmaceuticals, Inc., priority 1999, dated 2003).

melting point: 83 to 85 °C
Compound: CC(C)C[C@H](NC(=O)N1CCOCC1)C(=O)N[C@@H](CCc1ccccc1)C(=O)c1oc(-c2ccccc2)nc1-c1ccccc1 [Example 5, Morpholine-4-carboxylic acid {1-(S)-[1-(S)-(2,4-diphenyloxazole-5-carbonyl)-3-phenylpropylcarbamoyl]-3-methylbutyl} amide]
